From the supplement of paper PMC10307832

Experiments:
Assay in all cases: relative viability (nuclei count vs DMSO), 5 days (fraction); higher = more cells survive
Erlotinib + Navitoclax = compound: C#Cc1cccc(Nc2ncnc3cc(OCCOC)c(OCCOC)cc23)c1 [Erlotinib] + CC1(C)CCC(c2ccc(Cl)cc2)=C(CN2CCN(c3ccc(C(=O)NS(=O)(=O)c4ccc(N[C@H](CCN5CCOCC5)CSc5ccccc5)c(S(=O)(=O)C(F)(F)F)c4)cc3)CC2)C1 [Navitoclax] (partner 0.5 µM)
Method in brief: (§1)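 Dosing by pin tool came one day after lung cancer cell lines were seeded in 1536-well plates, using either one drug or a fixed anchor-drug dose plus five library-drug doses (not always all listed) in √10 steps. After 5 days, nuclei were counted on 4× images. Relative viability is treated-well nuclei count divided by vehicle-well nuclei count, and values are medians of duplicate plates.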

Erlotinib + Pemetrexed = compound: C#Cc1cccc(Nc2ncnc3cc(OCCOC)c(OCCOC)cc23)c1 [Erlotinib] + Nc1nc2[nH]cc(CCc3ccc(C(=O)N[C@@H](CCC(=O)O)C(=O)O)cc3)c2c(=O)[nH]1 [Pemetrexed] (partner 0.2 µM)
Method in brief: as §1

Erlotinib + Dasatinib = compound: C#Cc1cccc(Nc2ncnc3cc(OCCOC)c(OCCOC)cc23)c1 [Erlotinib] + Cc1nc(Nc2ncc(C(=O)Nc3c(C)cccc3Cl)s2)cc(N2CCN(CCO)CC2)n1 [Dasatinib] (partner 0.075 µM)
Method in brief: as §1

Row | Cell Line | relative viability (Erlotinib + Navitoclax; first compound 0.02 µM) | relative viability (Erlotinib + Navitoclax; first compound 0.2 µM) | relative viability (Erlotinib + Navitoclax; first compound 0.6325 µM) | relative viability (Erlotinib + Navitoclax; first compound 2 µM) | relative viability (Erlotinib + Pemetrexed; first compound 0.02 µM) | relative viability (Erlotinib + Pemetrexed; first compound 0.2 µM) | relative viability (Erlotinib + Pemetrexed; first compound 0.6325 µM) | relative viability (Erlotinib + Pemetrexed; first compound 2 µM) | relative viability (Erlotinib + Dasatinib; first compound 0.02 µM) | relative viability (Erlotinib + Dasatinib; first compound 0.2 µM) | relative viability (Erlotinib + Dasatinib; first compound 0.6325 µM) | relative viability (Erlotinib + Dasatinib; first compound 2 µM)
1 | 201T | 1.22 | 1.2 | 1.2 | 1.17 | 0.339 | 0.336 | 0.348 | 0.32 | 0.646 | 0.548 | 0.543 | 0.541
2 | A549 | 1.1 | 1.26 | 1.33 | 1.06 | – | – | – | – | – | – | – | –
3 | A-427 | 0.946 | 0.99 | 0.978 | 0.997 | 0.967 | 1.04 | 1.06 | 1.01 | 0.832 | 0.687 | 0.842 | 0.676
4 | ABC-1 | – | – | – | – | – | – | – | – | 0.564 | 0.491 | 0.506 | 0.565
5 | BEN | 0.0747 | 0.0625 | 0.0619 | 0.0646 | 0.766 | 0.83 | 1.03 | 0.766 | 0.318 | 0.381 | 0.413 | 0.3
6 | CAL-12T | 1.35 | 1.31 | 0.614 | 0.546 | 1.43 | 1.15 | 0.929 | 0.662 | 0.632 | 0.307 | 0.266 | 0.15
7 | COR-L23 | 1.16 | 1.04 | 1.08 | 1 | 0.205 | 0.178 | 0.195 | 0.19 | 0.552 | 0.554 | 0.457 | 0.452
8 | COR-L 105 | 0.809 | 0.531 | 0.364 | 0.283 | 0.967 | 0.835 | 0.535 | 0.352 | 0.302 | 0.173 | 0.182 | 0.122
9 | Calu-6 | 0.919 | 0.803 | 0.781 | 0.759 | – | – | – | – | – | – | – | –
10 | ChaGo-K-1 | 0.68 | 0.981 | 1.25 | 0.777 | 0.276 | 0.259 | 0.267 | 0.26 | 0.626 | 0.512 | 0.636 | 0.5
11 | EBC-1 | 0.404 | 0.466 | 0.363 | 0.34 | – | – | – | – | – | – | – | –
12 | EKVX | 0.939 | 0.693 | 0.289 | 0.184 | 0.411 | 0.283 | 0.286 | 0.19 | 0.544 | 0.242 | 0.321 | 0.223
13 | EMC-BAC-2 | 1.13 | 1.04 | 0.974 | 0.906 | 0.466 | 0.425 | 0.432 | 0.421 | 0.33 | 0.314 | 0.337 | 0.342
14 | EPLC-272H | 1.04 | 1.05 | 1.1 | 0.589 | 0.385 | 0.329 | 0.29 | 0.371 | 0.461 | 0.217 | 0.358 | 0.279
15 | H3255 | 0.449 | 0.147 | 0.0899 | 0.0743 | 0.528 | 0.387 | 0.383 | 0.233 | 0.322 | 0.347 | 0.167 | 0.278
16 | HARA | 1.16 | 1.08 | 0.88 | 0.964 | 0.259 | 0.21 | 0.186 | 0.222 | 0.28 | 0.265 | 0.253 | 0.151
